Laboratory results published in US20160194718A1, “Compositions and Methods for Identification, Assessment, Prevention, and Treatment of Cancer Using Histone H3K27ME3 Biomarkers and Modulators” (DANA-FARBER CANCER INSTITUTE, INC., priority 2013, published 2016).

Tests used:
H3K27me3 = assay: Western blotting of B cell colonies for H3K27me3; assay type: cell-based, mouse
Experimental: Western blotting was performed as described in Yoda et al. (2010) Proc. Natl. Acad. Sci. U.S.A. 107:252-257. Image J (available on the World Wide Web at imagej.nih.gov/ij) was used for quantitation of immunoblots, with band intensity normalized to total H3.
(§1) GSK-J4 (KDM6A/UTX and KDM6B/JMJD3 inhibitor, catalog #M60063-2) (Kruidenier et al. (2012) Nature 488:404-408) and GSK-126 (EZH2 inhibitor, catalog #M60071-2) (McCabe et al. (2012) Nature 492:108-112) were purchased from Xcessbio. For methylcellulose experiments, at each passage DMSO, GSK-J4, or GSK-126 were added to cultures a final concentration of 1 μM. DS-ALLs (deidentified specimens obtained with informed consent under DFCI IRB protocol 05-001) were treated In vitro in quadruplicate with GSK-J4 at two-fold dilutions from 40 nM to 10 μM in RPMI with 20% calf serum supplemented with 10 ng/mL IL3, IL7, SCF, FLT3 ligand, and 50 μM beta-mercaptoethanol. After 3 days, viability was measured using CellTiter-Glo reagent and normalized to DMSO control (Promega).

Ts1Rhr B cells = assay: Methylcellulose B cell colony forming / repassaging assay with drug; assay type: cell-based, mouse; settings: 1 μM added at each passage
Experimental: as §1, with “Whole bone marrow was harvested from 6-8-week-old mice, and red blood cells were lysed. Cells were plated in B cell (Methocult M3630, Stem Cell Technologies) or myeloid (Methocult M3434) methylcelluose media in gridded 35 mm dishes. Myeloid colonies were plated at 2×10^4 cells/ml per passage. B cell colonies were plated at 2×10^5 cells/ml in passage 1, and at 5×10^4 cells/ml per subsequent passage. Colonies were counted at 7 days, and colonies were then pooled and replated in the same manner. GSK-J4 (KDM6A/UTX” for “GSK-J4 (KDM6A/UTX”

DS-ALLs = DS-ALLs treated in vitro with GSK-J4, viability by CellTiter-Glo; assay type: cell-based; settings: Homo sapiens, 72 h; five DS-ALLs, 3 days, two-fold dilutions 40 nM to 10 μM, normalized to DMSO; read-out: IC50 values for GSK-J4 across a panel of DS-ALLs
Experimental: as §1

[1] = system: human primary macrophages; settings: 10 μM; cited from earlier work
wild-type B cells = assay: Methylcellulose B cell colony forming / repassaging assay with drug; assay type: cell-based, mouse
Experimental: Whole bone marrow was harvested from 6-8-week-old mice, and red blood cells were lysed. Cells were plated in B cell (Methocult M3630, Stem Cell Technologies) or myeloid (Methocult M3434) methylcelluose media in gridded 35 mm dishes. Myeloid colonies were plated at 2×10^4 cells/ml per passage. B cell colonies were plated at 2×10^5 cells/ml in passage 1, and at 5×10^4 cells/ml per subsequent passage. Colonies were counted at 7 days, and colonies were then pooled and replated in the same manner.
as §1

[2] = 1 μM, passage 2 colonies after 14 total days in culture

## CCOC(=O)CCNc1cc(N2CCc3ccccc3CC2)nc(-c2ccccn2)n1 [GSK-J4, ethyl 3-((6-(4,5-dihydro-1H-benzo[d]azepin-3(2H)-yl)-2-(pyridin-2-yl)pyrimidin-4-yl)amino)propanoate]
H3K27me3; [2]
  H3K27me3 in Ts1Rhr B cells: increased H3K27me3
Ts1Rhr B cells
  indefinite repassaging: blocked indefinite repassaging
Ts1Rhr B cells; vs DMSO
  colony-forming activity: decreased colony-forming activity
DS-ALLs
  IC50: 1400 to 2500 nM
[1]
  lipopolysaccharide-induced proinflammatory cytokine production: reduces

## CC[C@H](C)n1cc(C)c2c(C(=O)NCc3c(C)cc(C)[nH]c3=O)cc(-c3ccc(N4CCNCC4)nc3)cc21 [GSK-126, (S)-1-(sec-butyl)-N-((4,6-dimethyl-2-oxo-1,2-dihydropyridin-3-yl)methyl)-3-methyl-6-(6-(piperazin-1-yl)pyridin-3-yl)-1H-indole-4-carboxamide]
H3K27me3; [2]
  H3K27me3 in wild-type B cells: decreased H3K27me3
H3K27me3; wild-type cells, one passage (7 days) after removal
  loss of H3K27me3 after withdrawal of compound: reversible
wild-type B cells; 1 μM added at each passage
  indefinite repassaging in wild-type B cells: sufficient to confer indefinite repassaging
wild-type B cells; wild-type cells, withdrawal at passage 5
  indefinite repassaging after withdrawal of compound: reversible
